Source: patent publication US10336739B2, “4-hydroxy-3-(heteroaryl)pyridine-2-one APJ agonists” (BRISTOL-MYERS SQUIBB COMPANY, priority 2015, dated 2019)

biological target: human APJ receptor (Homo sapiens (Human), UniProt P35414); assay: Intracellular cAMP accumulation assay (APJ hcAMP, HTRF); type: cell-based; conditions: HEK293 cells stably expressing human APJ receptor; inhibition of forskolin-mediated cAMP production; read-out: Human APJ cAMP EC50 Potency range
How it was run: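 cAMP inhibition was quantified by HTRF against a cAMP standard curve, with EC50 fitted to a variable-slope sigmoidal curve. Compounds acted on 5,000 APJ-stable HEK293 cells for 30 minutes at room temperature alongside 2 μM forskolin and […] IBMX. Detection reagents were incubated 60 min.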

Sequence of human APJ receptor (P35414 whole entry): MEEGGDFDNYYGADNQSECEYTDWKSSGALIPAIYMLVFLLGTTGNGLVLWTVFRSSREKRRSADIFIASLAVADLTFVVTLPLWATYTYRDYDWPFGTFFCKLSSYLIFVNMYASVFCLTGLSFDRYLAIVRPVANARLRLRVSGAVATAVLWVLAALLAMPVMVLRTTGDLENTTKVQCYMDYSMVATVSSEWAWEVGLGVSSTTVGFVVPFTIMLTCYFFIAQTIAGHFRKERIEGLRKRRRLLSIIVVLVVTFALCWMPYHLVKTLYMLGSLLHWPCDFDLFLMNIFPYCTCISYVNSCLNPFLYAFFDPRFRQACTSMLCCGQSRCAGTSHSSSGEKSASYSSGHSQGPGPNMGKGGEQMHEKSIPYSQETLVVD

| SMILES | EC50 [nM] |
| --- | --- |
| CCOCc1nc(O)c(-c2nnc(Cn3ccccc3=O)o2)c(O)c1-c1c(OC)cc(F)cc1OC [Example 212, 1-({5-[6-(ethoxymethyl)-5-(4-fluoro-2,6-dimethoxyphenyl)-2,4-dihydroxypyridin-3-yl]-1,3,4-oxadiazol-2-yl}methyl)-1,2-dihydropyridin-2-one] | 10 to 100 |
| CCOCc1nc(O)c(-c2nnc(Cc3ccc(Cl)cc3)o2)c(O)c1-c1c(OC)cncc1OC [Example 217, 3-{5-[(4-chlorophenyl)methyl]-1,3,4-oxadiazol-2-yl}-5-(3,5-dimethoxypyridin-4-yl)-6-(ethoxymethyl)pyridine-2,4-diol] | 10 to 100 |
| CCCCc1nc(O)c(-c2nnc(Cc3noc4ccccc34)o2)c(O)c1-c1c(C)cccc1C [Example 224, 3-[5-(1,2-benzoxazol-3-ylmethyl)-1,3,4-oxadiazol-2-yl]-6-butyl-5-(2,6-dimethylphenyl)pyridine-2,4-diol] | 0.01 to 10 |
| CCCCc1nc(O)c(-c2nnc(Cc3noc4cccnc34)o2)c(O)c1-c1c(OC)cccc1OC [Example 227, 6-butyl-5-(2,6-dimethoxyphenyl)-3-(5-{[1,2]oxazolo[4,5-b]pyridin-3-ylmethyl}-1,3,4-oxadiazol-2-yl)pyridine-2,4-diol] | 0.01 to 10 |

The next lines start with the values.

| EC50 [nM] | SMILES |
| --- | --- |
| 10 to 100 | CCOCc1nc(O)c(-c2nnc(Cc3ccc(Cl)cc3)o2)c(O)c1-c1c(O)cccc1O [Example 229, 3-{5-[(4-chlorophenyl)methyl]-1,3,4-oxadiazol-2-yl}-5-(2,6-dihydroxyphenyl)-6-(ethoxymethyl)pyridine-2,4-diol] |
| 0.01 to 10 | CCNCc1[nH]c(=O)c(-c2nnc(Cc3ccc(Cl)cn3)o2)c(O)c1-c1c(OC)cccc1OC [Example 230, 3-{5-[(5-chloropyridin-2-yl)methyl]-1,3,4-oxadiazol-2-yl}-5-(2,6-dimethoxyphenyl)-6-[(ethylamino)methyl]pyridine-2,4-diol] |
| 10 to 100 | CCOCc1nc(O)c(-c2nnc(Cc3noc4ccccc34)s2)c(O)c1-c1c(OC)cccc1OC [Example 231, 3-{5-[(1,2-benzoxazol-3-yl)methyl]-1,3,4-thiadiazol-2-yl}-5-(2,6-dimethoxyphenyl)-6-(ethoxymethyl)pyridine-2,4-diol] |

same assay, conditions: HEK293 cells stably expressing human APJ receptor; inhibition of forskolin-mediated cAMP production; read-out: hAPJ cAMP EC50 (nM) Potency range

| EC50 [nM] | SMILES |
| --- | --- |
| 0.01 to 10 | CCOCc1nc(O)c(-c2nnc(Cc3ccc(Cl)cn3)s2)c(O)c1-c1c(OC)cccc1OC [Example 232, 3-{5-[(5-chloropyridin-2-yl)methyl]-1,3,4-thiadiazol-2-yl}-5-(2,6-dimethoxyphenyl)-6-(ethoxymethyl) pyridine-2,4-diol] |
| 10 to 100 | COc1cccc(OC)c1-c1c(C2CCCC2)nc(O)c(-c2nnc(Cc3ccc(Cl)cn3)s2)c1O [Example 233, 3-{5-[(5-chloropyridin-2-yl)methyl]-1,3,4-thiadiazol-2-yl}-6-cyclopentyl-5-(2,6-dimethoxyphenyl) pyridine-2,4-diol] |
| 10 to 100 | CCOCc1nc(O)c(-c2nnc(Cc3ccc(Cl)cc3)s2)c(O)c1-c1c(OC)cccc1OC [Example 234, 3-{5-[(4-chlorophenyl)-methyl]-1,3,4-thiadiazol-2-yl}-5-(2,6-dimethoxyphenyl)-6-(ethoxymethyl)-pyridine-2,4-diol] |
| 10 to 100 | CCOCc1nc(O)c(-c2nnc(CNC(=O)c3ccccn3)s2)c(O)c1-c1c(OC)cccc1OC [Example 235, N-({5-[5-(2,6-dimethoxyphenyl)-6-(ethoxymethyl)-2,4-dihydroxypyridin-3-yl]-1,3,4-thiadiazol-2-yl}methyl) pyridine-2-carboxamide] |
| 0.01 to 10 | CCOCc1nc(O)c(-c2nnc(Cc3ncc(Cl)cc3F)o2)c(O)c1-c1c(OC)cccc1OC [Example 237, 3-{5-[(5-chloro-3-fluoropyridin-2-yl)methyl]-1,3,4-oxadiazol-2-yl}-5-(2,6-dimethoxyphenyl)-6-(ethoxymethyl) pyridine-2,4-diol] |
| 0.01 to 10 | COc1cccc(OC)c1-c1c(C2CCCC2)nc(O)c(-c2nnc(Cc3ccc(Cl)cn3)o2)c1O [Example 238, 3-{5-[(5-chloropyridin-2-yl)methyl]-1,3,4-oxadiazol-2-yl}-6-cyclopentyl-5-(2,6-dimethoxyphenyl) pyridine-2,4-diol] |
| 0.01 to 10 | COc1cccc(OC)c1-c1c(C2CCCC2)[nH]c(=O)c(-c2nnc(Cc3ccc(Cl)cc3)o2)c1O [Example 239, 3-{5-[(4-chlorophenyl)methyl]-1,3,4-oxadiazol-2-yl}-6-cyclopentyl-5-(2,6-dimethoxyphenyl) pyridine-2,4-diol] |
| 0.01 to 10 | COCCOCc1nc(O)c(-c2nnc(Cc3ccc(Cl)cn3)o2)c(O)c1-c1c(OC)cccc1OC [Example 240, 3-{5-[(5-chloropyridin-2-yl)methyl]-1,3,4-oxadiazol-2-yl}-5-(2,6-dimethoxyphenyl)-6-[(2-methoxyethoxy)methyl] pyridine-2,4-diol] |
| 10 to 100 | COCCOCc1nc(O)c(-c2nnc(Cc3noc4ccccc34)o2)c(O)c1-c1c(OC)cccc1OC [Example 242, 3-{5-[(1,2-benzoxazol-3-yl)methyl]-1,3,4-oxadiazol-2-yl}-5-(2,6-dimethoxyphenyl)-6-[(2-methoxyethoxy)methyl]pyridine-2,4-diol] |
| 10 to 100 | CCOCc1nc(O)c(-c2nnc(CNc3ccccc3)o2)c(O)c1-c1c(OC)cccc1OC [Example 243, 5-(2,6-dimethoxyphenyl)-6-(ethoxymethyl)-3-{5-[(phenylamino)methyl]-1,3,4-oxadiazol-2-yl}pyridine-2,4-diol] |
| 10 to 100 | COCCOCc1nc(O)c(-c2nnc(Cc3ccc(Cl)cc3)o2)c(O)c1-c1c(OC)cccc1OC [Example 244, 3-{5-[(4-chlorophenyl)methyl]-1,3,4-oxadiazol-2-yl}-5-(2,6-dimethoxyphenyl)-6-[(2-methoxyethoxy)methyl]pyridine-2,4-diol] |
| 0.01 to 10 | CCCCc1nc(O)c(-c2nnc(CNC(=O)c3ccccc3)o2)c(O)c1-c1cc(OC)ccc1OC [Example 246, N-({5-[6-butyl-5-(2,5-dimethoxyphenyl)-2,4-dihydroxy-pyridin-3-yl]-1,3,4-oxadiazol-2-yl}methyl) benzamide] |

same assay, conditions: HEK293 cells stably expressing human APJ receptor; inhibition of forskolin-mediated cAMP production; read-out: hAPJ cAMP EC50 Potency range

| EC50 [nM] | SMILES |
| --- | --- |
| 0.01 to 10 | CCCCc1nc(O)c(-c2nnc(Cc3nnc(Cc4ccccc4)o3)o2)c(O)c1-c1c(OC)cccc1OC [Example 209, 3-{5-[(5-benzyl-1,3,4-oxadiazol-2-yl)methyl]-1,3,4-oxadiazol-2-yl}-6-butyl-5-(2,6-dimethoxyphenyl) pyridine-2,4-diol] |
| 10 to 100 | CCCCc1nc(O)c(-c2nnc(Cc3nnc(-c4cccc(Cl)c4)o3)o2)c(O)c1-c1c(OC)cccc1OC [Example 210, 6-butyl-3-(5-{[5-(3-chlorophenyl)-1,3,4-oxadiazol-2-yl]methyl}-1,3,4-oxadiazol-2-yl)-5-(2,6-dimethoxyphenyl) pyridine-2,4-diol] |
| 10 to 100 | CCCCc1nc(O)c(-c2nnc(Cc3nnc(-c4cccnc4)o3)o2)c(O)c1-c1c(OC)cccc1OC [Example 211, 6-butyl-5-(2,6-dimethoxyphenyl)-3-(5-{[5-(pyridin-3-yl)-1,3,4-oxadiazol-2-yl]methyl}-1,3,4-oxadiazol-2-yl)pyridine-2,4-diol] |
| 0.01 to 10 | CCOCc1nc(O)c(-c2nnc(Cc3noc4ccccc34)o2)c(O)c1-c1c(OC)cc(F)cc1OC [Example 213, 3-[5-(1,2-benzoxazol-3-ylmethyl)-1,3,4-oxadiazol-2-yl]-6-(ethoxymethyl)-5-(4-fluoro-2,6-dimethoxyphenyl) pyridine-2,4-diol] |
| 0.01 to 10 | CCOCc1nc(O)c(-c2nnc(Cc3ccc(Cl)cc3)o2)c(O)c1-c1c(OC)cc(F)cc1OC [Example 214, 3-{5-[(4-chlorophenyl)methyl]-1,3,4-oxadiazol-2-yl}-6-(ethoxymethyl)-5-(4-fluoro-2,6-dimethoxyphenyl) pyridine-2,4-diol] |
| 10 to 100 | CCOCc1nc(O)c(-c2nnc(CN3CCCC3=O)o2)c(O)c1-c1c(OC)cc(F)cc1OC [Example 215, 1-({5-[6-(ethoxymethyl)-5-(4-fluoro-2,6-dimethoxyphenyl)-2,4-dihydroxypyridin-3-yl]-1,3,4-oxadiazol-2-yl}methyl) pyrrolidin-2-one] |
| 0.01 to 10 | CCOCc1nc(O)c(-c2nnc(Cc3ccc(Cl)nc3)o2)c(O)c1-c1c(OC)cc(F)cc1OC [Example 216, 3-{5-[(6-chloropyridin-3-yl)methyl]-1,3,4-oxadiazol-2-yl}-6-(ethoxymethyl)-5-(4-fluoro-2,6-dimethoxyphenyl) pyridine-2,4-diol] |
| 10 to 100 | CCCCc1nc(O)c(-c2nnc(Cc3noc4ccccc34)o2)c(O)c1-c1c(C)cc(C)cc1C [Example 225, 3-[5-(1,2-benzoxazol-3-ylmethyl)-1,3,4-oxadiazol-2-yl]-6-butyl-5-(2,4,6-trimethylphenyl) pyridine-2,4-diol] |
| 0.01 to 10 | CCCCc1nc(O)c(-c2nnc(Cc3noc4ccccc34)o2)c(O)c1-c1c(CC)cccc1CC [Example 226, 3-[5-(1,2-benzoxazol-3-ylmethyl)-1,3,4-oxadiazol-2-yl]-6-butyl-5-(2,6-diethylphenyl) pyridine-2,4-diol] |
| 0.01 to 10 | CCOCc1nc(O)c(-c2nnc(Cc3noc4cccnc34)o2)c(O)c1-c1c(OC)cccc1OC [Example 228, 5-(2,6-dimethoxyphenyl)-6-(ethoxymethyl)-3-(5-{[1,2]oxazolo[4,5-b]pyridin-3-ylmethyl}-1,3,4-oxadiazol-2-yl)pyridine-2,4-diol] |

same assay, conditions: hAPJ cAMP EC50 (nM) Potency range, HEK293 cells stably expressing human APJ receptor; inhibition of forskolin-mediated cAMP production

| SMILES | EC50 [nM] |
| --- | --- |
| CCCCc1nc(O)c(-c2nnc(Cc3ncc(Cl)cc3F)o2)c(O)c1-c1c(OC)cccc1OC [Example 236, 6-butyl-3-{5-[(5-chloro-3-fluoropyridin-2-yl)methyl]-1,3,4-oxadiazol-2-yl}-5-(2,6-dimethoxyphenyl) pyridine-2,4-diol] | 10 to 100 |
